Test results from ChEMBL document CHEMBL1153524, “2009 Claude S. Hudson Award in Carbohydrate Chemistry. Carbohydrates: a frontier in medicinal chemistry” (2009).

Tested on: Plasmodium berghei
Assay: Antiplasmodial activity as survival against Plasmodium berghei ANKA infected mice (Mus musculus)
Format: functional

NCCOP(=O)(O)OC[C@H]1O[C@H](O[C@@H]2[C@@H](OC[C@H]3O[C@H](O[C@H]4[C@H](O)[C@@H](N)[C@@H](O[C@@H]5[C@@H](O)[C@H](O)[C@@H](O)[C@H]6OP(=O)(O)O[C@H]65)O[C@@H]4CO)[C@@H](O)[C@@H](O)[C@@H]3O)O[C@H](CO)[C@@H](O)[C@@H]2O)[C@@H](O[C@H]2O[C@H](CO)[C@@H](O)[C@H](O)[C@@H]2O)[C@@H](O)[C@@H]1O
Survival: 75%
